Results as given in patent US8263605B2, “Modulators of muscarinic receptors” (Vertex Pharmaceutical Incorporated, priority 2006, dated 2012).

Key:
M4 muscarinic receptor = target: T1, M4 muscarinic receptor (Homo sapiens, UniProt P08173); assay: Functional mobilization of intracellular calcium (FLIPR), M4-CHO cells; type: cell-based; settings: for Emax: 100% efficacy is the maximum response obtained with the Carbachol control; for M4 Activity: CHO cells expressing M4, calcium mobilization
T1 construct: expressed in transfected cells; host or cells: CHO (M4-CHO)
T1 sequence (P08173 1-479): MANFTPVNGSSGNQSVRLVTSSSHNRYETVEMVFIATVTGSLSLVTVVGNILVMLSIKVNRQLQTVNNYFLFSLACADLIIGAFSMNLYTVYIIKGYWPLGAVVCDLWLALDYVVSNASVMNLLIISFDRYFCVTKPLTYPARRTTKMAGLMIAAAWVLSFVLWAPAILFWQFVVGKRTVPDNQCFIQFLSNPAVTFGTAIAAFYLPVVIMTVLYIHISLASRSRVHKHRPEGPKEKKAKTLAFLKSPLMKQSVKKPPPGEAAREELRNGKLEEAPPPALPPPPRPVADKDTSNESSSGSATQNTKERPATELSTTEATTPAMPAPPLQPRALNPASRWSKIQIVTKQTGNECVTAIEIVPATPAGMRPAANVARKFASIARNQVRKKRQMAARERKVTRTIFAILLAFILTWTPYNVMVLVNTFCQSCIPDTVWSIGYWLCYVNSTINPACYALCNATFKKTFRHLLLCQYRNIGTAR
Experimental: (§1) Functional Mobilization of Intracellular Calcium to Determine Muscarinic Receptor Activity:
(§2) CHO cells expressing muscarinic receptors (M1 to M5) are grown as monolayers in tissue culture flasks at 37° C. in a humidified atmosphere containing 5% CO2 and passaged every 3-5 days. The growth media is Dulbecco's modified eagles medium (DMEM, Gibco Cat#12430-054), containing 25 mM Hepes and supplemented with Fetal Bovine Serum (Hyclone, cat# SH30071.03), 0.1 mM of MEM non-essential amino acids (GIBCO, Cat#11140-050), 1 mM MEM Sodium Pyruvate (GIBCO Cat#11360-070) and 100 units/ml of Penicillin G and 100 μg/ml of Streptomycin (GIBCO Cat#15140-122). The recombinant muscarinic receptor cell lines are grown under antibiotic pressure with media containing 25 μg/ml zeocin and 500 μg/ml G418 (M1-CHO), 4 μg/ml puromycin, 50 μg/ml zeocin and 2.5 μg/ml blasticidin (M2 and M4-CHO) or 50 μg/ml zeocin and 4 μg/ml puromycin (M3 and M5-CHO).
(§3) Cells are harvested at 80-90% confluence using Versene (GIBCO Cat#15040-066), collected by centrifugation and seeded 18-24 hours prior to running the calcium assay at a density of 5,000-10,000 cells/well in […], clear-bottomed 384-well plates (BD Biocoat, poly-D-lysine, Cat#356663). The day of the experiment, the cells are washed with a plate washer (Bioteck Instrunents, ELX 405) using bath 1 buffer (140-mM NaCl, 4.5-mM KCl, 2-mM CaCl2, 1-mM MgCl2, 10-mM Hepes-Na, 10-mM Glucose, pH 7.4, with NaOH) containing 1 mM Probenecid. Next, the calcium dye Fluo-3 (25 μl/well of Fluo-3 AM at 4 μM, Molecular Probes F-1241, in Bath 1 buffer containing 1 mM Probenecid) is added to the 25 μl of Bath 1 remaining in each well after the plate wash and the dye is loaded at 37° C. in the tissue culture incubator for 60-90 min. The fluorescent dye is removed using the plate washer with Bath 1 containing 1 mM Probenecid, leaving 25 μl/well of this solution after the wash. Alternatively, cells can be loaded with the calcium indicator from Molecular Devices (Calcium 3 Assay Reagents, Cat # R7181) adding 5 μl of a 5× solution dye in Bath 1 containing 1 mM Probenecid (10 ml per dye flask cat# R7182 to generate a solution 20×) to 20 μl of the same buffer. After loading for 60 min, the experiment can be run without having to remove the dye.
(§4) Compounds are prepared at a 2× fold concentration in a 96-well plate (round bottom, Costar Corning cat#3656), by reconstituting the pre-spotted compounds in bath 1 containing 1 mM probenecid. The final concentration DMSO is 0.5%, and the amount of DMSO is normalized across the assay plate. To determine an agonist action of the compounds on muscarinic receptors, the reconstituted compounds are added (25 μl compound/well) to the cell assay plate (containing 25 μl/well) using the multi-channel robotic system of the FLIPR 3 Instrument (Molecular Devices, Sunnyvale, Calif.). To determine a functional inhibitory action of the compounds on muscarinic receptors, the reconstituted compounds are added (25 μl compound/well) to the assay plate and pre-incubated for 15 min prior to adding 25 μl of Carbachol at 3× the EC80 for each muscarinic subtype. Alternatively, the compounds can be co-applied simultaneously with the agonist. In both assay modes, the fluorescence is recorded for 60 sec (excitation wavelength is […] and emission wavelength 540 nm) using the FLIPR 3 instrument.
(§5) The potency, efficacy and selectivity of the muscarinic compounds were evaluated by screening the compound activity across the whole family (M1 to M5 cells). Compounds were also screened for activity on other proteins such as other GPCRs and ion channels to determine selectivity on M4 receptors.
(§6) Examples of activities and efficacies of the muscarinic compounds of formulae (I, Ia, Ib, Ic, Id, and Ie) on modulating M1 and M4 receptors are shown below in Table 4. […]

M1 muscarinic receptor = target: T2, M1 muscarinic receptor (Homo sapiens, UniProt P11229); assay: Functional mobilization of intracellular calcium (FLIPR), M1-CHO cells; type: cell-based; settings: for Emax: 100% efficacy is the maximum response obtained with the Carbachol control; for M1 Activity: CHO cells expressing M1, calcium mobilization
T2 construct: expressed in transfected cells; host or cells: CHO (M1-CHO)
T2 sequence (P11229 1-460): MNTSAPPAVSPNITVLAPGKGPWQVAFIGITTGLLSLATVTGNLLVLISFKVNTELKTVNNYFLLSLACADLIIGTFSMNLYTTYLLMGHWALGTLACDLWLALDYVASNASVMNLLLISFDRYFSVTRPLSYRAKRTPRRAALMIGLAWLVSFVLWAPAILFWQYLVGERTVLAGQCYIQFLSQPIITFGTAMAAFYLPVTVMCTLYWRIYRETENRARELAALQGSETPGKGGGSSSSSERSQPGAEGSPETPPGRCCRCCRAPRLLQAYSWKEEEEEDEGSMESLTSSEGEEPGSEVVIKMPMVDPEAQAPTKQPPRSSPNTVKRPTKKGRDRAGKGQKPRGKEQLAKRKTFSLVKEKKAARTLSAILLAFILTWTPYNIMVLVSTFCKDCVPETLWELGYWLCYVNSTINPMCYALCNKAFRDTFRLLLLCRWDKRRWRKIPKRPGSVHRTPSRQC
Experimental: as §1, §2, §3, §4, §5, §6

Compound | Emax (M4 muscarinic receptor) [%] | M4 Activity (M4 muscarinic receptor) | Emax (M1 muscarinic receptor) [%] | M1 Activity (M1 muscarinic receptor)
C#CCOC(=O)N1CCC(N2CCC3(CCN(C(=O)N(C)C)c4ccccc43)CC2)CC1 [compound 4] | 25 to 100 | +++ (activity was measured to be less than 2.0 μM) | 25 to 100 | +++ (activity was measured to be less than 2.0 μM)
Cc1nsc(N2CCC(N3CCC4(CCN(C(=O)N(C)C)c5ccccc54)CC3)CC2)n1 [compound 6] | 25 to 100 | +++ (activity was measured to be less than 2.0 μM) | 25 to 100 | +++ (activity was measured to be less than 2.0 μM)
CCc1nsc(N2CCC(N3CCC4(CCN(C(=O)N(C)C)c5ccccc54)CC3)CC2)n1 [compound 7] | 25 to 100 | +++ (activity was measured to be less than 2.0 μM) | 25 to 100 | +++ (activity was measured to be less than 2.0 μM)
CN(C)C(=O)N1CCC2(CCN(C3CCN(c4cnccn4)CC3)CC2)c2ccccc21 [compound 8] | 25 to 100 | +++ (activity was measured to be less than 2.0 μM) | 25 to 100 | +++ (activity was measured to be less than 2.0 μM)
COC(=O)N1CCC(N2CCC3(CCN(C(C)=O)c4ccccc43)CC2)CC1 [compound 10] | 25 to 100 | +++ (activity was measured to be less than 2.0 μM) | 25 to 100 | +++ (activity was measured to be less than 2.0 μM)
C#CCOC(=O)N1CCC(N2CCC3(CCN(C(C)=O)c4ccccc43)CC2)CC1 [compound 12] | 25 to 100 | +++ (activity was measured to be less than 2.0 μM) | > 100 | +++ (activity was measured to be less than 2.0 μM)
CC#CCOC(=O)N1CCC(N2CCC3(CCN(C(C)=O)c4ccccc43)CC2)CC1 [compound 13] | 25 to 100 | +++ (activity was measured to be less than 2.0 μM) | 25 to 100 | +++ (activity was measured to be less than 2.0 μM)
CCC#CCOC(=O)N1CCC(N2CCC3(CCN(C(C)=O)c4ccccc43)CC2)CC1 [compound 14] | 25 to 100 | +++ (activity was measured to be less than 2.0 μM) | 25 to 100 | +++ (activity was measured to be less than 2.0 μM)
CC(=O)N1CCC2(CCN(C3CCN(c4nc(C)ns4)CC3)CC2)c2ccccc21 [compound 15] | 25 to 100 | +++ (activity was measured to be less than 2.0 μM) | 25 to 100 | +++ (activity was measured to be less than 2.0 μM)
CCc1nsc(N2CCC(N3CCC4(CCN(C(C)=O)c5ccccc54)CC3)CC2)n1 [compound 16] | 25 to 100 | +++ (activity was measured to be less than 2.0 μM) | 25 to 100 | +++ (activity was measured to be less than 2.0 μM)
